What all share (assay type): cell-based
Assay [1] concerns the target T1, EGFR del (PC9) (Homo sapiens, UniProt P00533, DEL746-750).
T1 construct: detects endogenous levels of phospho-EGF Receptor (Tyr1068) protein; host or cells: PC9
The assay can be described thus: pEGFR Y1068 ELISA assay, PC9 cells. Particulars: inhibition of phosphorylation of EGFR at Tyr1068; PC9 NSCLC cells; 2 hr compound incubation. On the technique in general: In an ELISA, binding on a coated surface is turned into a signal by an enzyme label.
Experimental: (§1) The PathScan® Phospho-EGF Receptor (Tyr1068) Sandwich ELISA Kit is a solid phase sandwich enzyme-linked immunosorbent assay (ELISA) that detects endogenous levels of phospho-EGF Receptor (Tyr1068) protein. […] NCI-H3255 cells were licensed from NCI. […] All cells were cultured according to ATCC recommendations. A549, NCI-H1975, PC9, and NCI-H3255 cells were grown in RPMI media (Invitrogen, Carlsbad, Calif.) supplemented with 10% FBS (Sigma, St Louis, Mo.), and with 1% Penn/Strep (Invitrogen).
(§2) Each compound was prepared as a DMSO stock solution (10 mM). Compounds were tested in duplicate on each plate, with an 11-point serial dilution curve (1:3 dilution). Compound treatment (50 μL) was added from the compound dilution plate to the cell plate. […] Plates were then incubated for 2 hr at 37° C., 5% CO2. […] The wash was then flicked off and ice-cold lysis buffer was added to the cells (50 μL/well). The plate was shaken for 20-30 min at 4° C. to completely lyse the cells. Sample diluent (50 μL/well) was added to the ELISA plate, and the lysate (50 μL) was diluted into the sample diluent in each well of the ELISA plate. Plates were sealed and incubated overnight at 4° C. with shaking. The next day, wells were washed four times with 1× Wash Buffer; plates were taped on lint-free paper after the final wash prior to adding Add Detection Antibody (green, 100 μL/well) to each well and incubating for 1 hr at 37° C. After incubation, wells were washed as described. HRP-Linked secondary antibody (red, 100 μL/well) was added to each well and incubated for 30 min at 37° C. After incubation, the wells were washed as described. TMB Substrate (100 μL/well) was added to each well and the plate incubated for 10 min at 37° C. or 30 min at rt maximum. Stop Solution (100 μL/well) was added to each well at the end of the incubation and plates were shaken gently for a few seconds. […] Data were analyzed using a four-parameter fit in Microsoft Excel.

Assay [2] has as its target T2, EGFR L858R+T790M, endogenous (NCI-H1975) (Homo sapiens, UniProt P00533, L858R/T790M).
T2 construct: NCI-H1975 (EGFR L858R+T790M, endogenous); host or cells: NCI-H1975
The assay can be described thus: pEGFR Y1068 ELISA assay, NCI-H1975 cells. The conditions noted are these: inhibition of phosphorylation of EGFR at Tyr1068; NCI-H1975 NSCLC cells; 2 hr compound incubation.
Experimental: (§3) Phosphorylation of EGFR at Y1068 was measured by PathScan® Phospho-EGF Receptor (Try1068) Sandwich ELISA kit (#7240, Cell Signaling Technology®, Danvers, Mass.). The PathScan® Phospho-EGF Receptor (Tyr1068) Sandwich ELISA Kit is a solid phase sandwich enzyme-linked immunosorbent assay (ELISA) that detects endogenous levels of phospho-EGF Receptor (Tyr1068) protein. […] All cells were cultured according to ATCC recommendations. A549, NCI-H1975, PC9, and NCI-H3255 cells were grown in RPMI media (Invitrogen, Carlsbad, Calif.) supplemented with 10% FBS (Sigma, St Louis, Mo.), and with 1% Penn/Strep (Invitrogen). PC9-DRH cells were grown in RPMI with 10% FBS and 1 μM dacomitinib.
(§4) Cells were plated at 40,000/well in complete culture media (50 μL/well) on the bottom of clear tissue culture treated microtiter plates (#3595, Corning Inc, Corning, N.Y.) and allowed to adhere overnight at 37° C., 5% CO2. The following day, compound dilution plates were prepared in 96 well clear V-bottom 0.5 mL polypropylene block plates (#3956, Corning, Inc). Each compound was prepared as a DMSO stock solution (10 mM). Compounds were tested in duplicate on each plate, with an 11-point serial dilution curve (1:3 dilution). Compound treatment (50 μL) was added from the compound dilution plate to the cell plate. […] Plates were then incubated for 2 hr at 37° C., 5% CO2. For A549 (EGFR wildtype) assay, cells were plated in full-serum (10%) media for 24 hr prior to compound treatment; cells were treated in full serum media as described and then stimulated for 10 min with EGF (40 ng/mL/starvation media, Invitrogen). Immediately prior to the end of the incubation, ice-cold lysis buffer was prepared (1× Cell Lysis Buffer (#9803, Cell Signaling Technology), 1 mM sodium orthovanadate (Na3VO4, #96508, Sigma), 1 mM phenylmethanesulfonyl fluoride (PMSF, 52332, CalBiochem/EMD Chemicals), complete Mini EDTA-free Protease Inhibitor Cocktail Tablet (1 tablet/10 mL, #11836170001, Roche, Indianapolis, Ind.), and PhosSTOP Phosphatase Inhibitor Cocktail Tablet (1 tablet/10 mL, #04906837001, Roche) in pure water. At the end of 2 hr, media was flicked off and cells were washed once with ice-cold 1 mM Na3VO4 in PBS (100 μL/well, Invitrogen). The wash was then flicked off and ice-cold lysis buffer was added to the cells (50 μL/well). The plate was shaken for 20-30 min at 4° C. to completely lyse the cells. Sample diluent (50 μL/well) was added to the ELISA plate, and the lysate (50 μL) was diluted into the sample diluent in each well of the ELISA plate. Plates were sealed and incubated overnight at 4° C. with shaking. The next day, wells were washed four times with 1× Wash Buffer; plates were taped on lint-free paper after the final wash prior to adding Add Detection Antibody (green, 100 μL/well) to each well and incubating for 1 hr at 37° C. After incubation, wells were washed as described. HRP-Linked secondary antibody (red, 100 μL/well) was added to each well and incubated for 30 min at 37° C. After incubation, the wells were washed as described. TMB Substrate (100 μL/well) was added to each well and the plate incubated for 10 min at 37° C. or 30 min at rt maximum. Stop Solution (100 μL/well) was added to each well at the end of the incubation and plates were shaken gently for a few seconds. Absorbance was read at 450 nm within 30 min after addition of Stop Solution on a PerkinElmer EnVision Excite Multilabel Reader Method for Absorbance or on a Molecular Devices SpectraMax^384 Reader for absorbance. Data were analyzed using a four-parameter fit in Microsoft Excel.

The target in assay [3] is T3, EGFR del/T790M (PC9-DRH) (Homo sapiens, UniProt P00533, DEL746-750/T790M).
T3 construct: detects endogenous levels of phospho-EGF Receptor (Tyr1068) protein; endogenous in cells; host or cells: PC9-DRH (dacomitinib-resistant derivative of PC9, generated in house)
The assay can be described thus: pEGFR Y1068 ELISA assay, PC9-DRH cells. The conditions noted are these: inhibition of phosphorylation of EGFR at Tyr1068; PC9-DRH cells (dacomitinib resistant); 2 hr compound incubation.
Experimental: as §1, §2

In assay [4] the target is T4, EGFR L858R (NCI-H3255) (Homo sapiens, UniProt P00533, L858R).
T4 construct: detects endogenous levels of phospho-EGF Receptor (Tyr1068) protein; host or cells: NCI-H3255
In words: pEGFR Y1068 ELISA assay, NCI-H3255 cells.
Experimental: as §1, §2

The target in assay [5] is T5, EGFR wildtype, endogenous (A549) (Homo sapiens, UniProt P00533).
T5 construct: A549 (EGFR wildtype, endogenous); host or cells: A549 (stimulated with EGF)
In words: pEGFR Y1068 ELISA assay, A549 cells. Particulars: inhibition of phosphorylation of EGFR at Tyr1068; A549 NSCLC cells; 2 hr compound incubation, then stimulated 10 min with EGF (40 ng/mL).
Experimental: as §3, §4

Structures are written as SMILES. Read-outs that look alike come from different tables or passages of the source.

T5 sequence (P00533 25-1210): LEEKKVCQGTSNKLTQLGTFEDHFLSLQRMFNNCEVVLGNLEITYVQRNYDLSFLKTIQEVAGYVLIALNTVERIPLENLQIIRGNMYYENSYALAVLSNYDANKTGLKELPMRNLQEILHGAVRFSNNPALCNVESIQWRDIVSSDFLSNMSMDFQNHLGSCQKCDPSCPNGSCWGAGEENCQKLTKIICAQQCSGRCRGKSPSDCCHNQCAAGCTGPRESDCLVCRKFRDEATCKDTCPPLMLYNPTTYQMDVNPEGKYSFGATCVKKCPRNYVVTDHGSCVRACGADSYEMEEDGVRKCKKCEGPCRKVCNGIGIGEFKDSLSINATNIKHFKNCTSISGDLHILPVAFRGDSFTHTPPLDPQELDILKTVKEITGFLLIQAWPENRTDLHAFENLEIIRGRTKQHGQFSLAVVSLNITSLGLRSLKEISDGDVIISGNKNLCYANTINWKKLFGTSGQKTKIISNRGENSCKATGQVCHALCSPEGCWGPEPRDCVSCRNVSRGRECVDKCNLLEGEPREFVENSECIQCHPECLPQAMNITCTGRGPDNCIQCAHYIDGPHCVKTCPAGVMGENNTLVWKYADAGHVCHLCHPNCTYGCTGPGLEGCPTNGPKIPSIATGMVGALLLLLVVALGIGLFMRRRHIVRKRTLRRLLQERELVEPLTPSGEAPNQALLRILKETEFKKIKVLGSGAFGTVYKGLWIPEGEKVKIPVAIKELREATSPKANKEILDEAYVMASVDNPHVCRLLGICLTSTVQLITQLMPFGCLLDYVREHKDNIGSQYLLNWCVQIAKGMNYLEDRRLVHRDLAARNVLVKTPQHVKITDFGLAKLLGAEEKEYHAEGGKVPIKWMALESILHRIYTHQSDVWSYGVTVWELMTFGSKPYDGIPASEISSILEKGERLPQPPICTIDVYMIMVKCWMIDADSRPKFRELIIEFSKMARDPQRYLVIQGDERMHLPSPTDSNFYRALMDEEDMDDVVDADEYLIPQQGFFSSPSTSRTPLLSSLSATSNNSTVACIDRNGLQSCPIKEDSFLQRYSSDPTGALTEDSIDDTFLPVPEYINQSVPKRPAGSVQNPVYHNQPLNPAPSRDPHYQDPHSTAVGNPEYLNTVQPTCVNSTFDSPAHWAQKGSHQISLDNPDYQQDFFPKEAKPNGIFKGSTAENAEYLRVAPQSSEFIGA
T3 sequence (P00533 with tags, fused parts or gaps DEL746-750/T790M): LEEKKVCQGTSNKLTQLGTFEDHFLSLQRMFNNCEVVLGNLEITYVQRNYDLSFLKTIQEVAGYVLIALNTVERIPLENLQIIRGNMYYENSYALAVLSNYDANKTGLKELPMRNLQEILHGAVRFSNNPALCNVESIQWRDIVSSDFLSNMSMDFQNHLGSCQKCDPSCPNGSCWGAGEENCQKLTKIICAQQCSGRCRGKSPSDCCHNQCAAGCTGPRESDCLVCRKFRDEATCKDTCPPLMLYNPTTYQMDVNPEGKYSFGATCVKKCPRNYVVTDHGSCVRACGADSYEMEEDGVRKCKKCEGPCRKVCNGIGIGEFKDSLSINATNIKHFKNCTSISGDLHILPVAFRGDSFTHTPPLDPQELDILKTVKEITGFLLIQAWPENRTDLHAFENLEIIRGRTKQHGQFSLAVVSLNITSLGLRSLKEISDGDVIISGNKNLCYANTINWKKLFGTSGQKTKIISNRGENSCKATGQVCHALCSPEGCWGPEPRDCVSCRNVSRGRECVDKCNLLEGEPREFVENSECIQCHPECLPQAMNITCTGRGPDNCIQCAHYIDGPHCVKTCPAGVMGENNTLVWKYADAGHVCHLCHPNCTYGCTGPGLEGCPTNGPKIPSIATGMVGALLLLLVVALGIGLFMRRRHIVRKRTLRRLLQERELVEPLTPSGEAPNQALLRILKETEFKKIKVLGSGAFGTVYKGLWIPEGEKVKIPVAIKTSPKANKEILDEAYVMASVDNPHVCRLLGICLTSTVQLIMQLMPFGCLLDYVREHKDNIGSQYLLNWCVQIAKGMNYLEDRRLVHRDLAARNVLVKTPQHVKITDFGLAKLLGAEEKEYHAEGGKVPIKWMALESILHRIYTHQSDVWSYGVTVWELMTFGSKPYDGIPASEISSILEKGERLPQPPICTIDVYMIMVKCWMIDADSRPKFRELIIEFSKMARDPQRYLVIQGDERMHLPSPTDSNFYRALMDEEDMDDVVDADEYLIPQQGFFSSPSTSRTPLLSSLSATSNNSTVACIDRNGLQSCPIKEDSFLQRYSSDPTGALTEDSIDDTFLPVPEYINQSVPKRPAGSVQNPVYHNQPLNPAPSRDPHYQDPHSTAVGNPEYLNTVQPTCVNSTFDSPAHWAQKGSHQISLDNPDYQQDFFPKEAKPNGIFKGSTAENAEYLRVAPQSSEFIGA
T2 sequence (P00533 25-1210 T790M/L858R): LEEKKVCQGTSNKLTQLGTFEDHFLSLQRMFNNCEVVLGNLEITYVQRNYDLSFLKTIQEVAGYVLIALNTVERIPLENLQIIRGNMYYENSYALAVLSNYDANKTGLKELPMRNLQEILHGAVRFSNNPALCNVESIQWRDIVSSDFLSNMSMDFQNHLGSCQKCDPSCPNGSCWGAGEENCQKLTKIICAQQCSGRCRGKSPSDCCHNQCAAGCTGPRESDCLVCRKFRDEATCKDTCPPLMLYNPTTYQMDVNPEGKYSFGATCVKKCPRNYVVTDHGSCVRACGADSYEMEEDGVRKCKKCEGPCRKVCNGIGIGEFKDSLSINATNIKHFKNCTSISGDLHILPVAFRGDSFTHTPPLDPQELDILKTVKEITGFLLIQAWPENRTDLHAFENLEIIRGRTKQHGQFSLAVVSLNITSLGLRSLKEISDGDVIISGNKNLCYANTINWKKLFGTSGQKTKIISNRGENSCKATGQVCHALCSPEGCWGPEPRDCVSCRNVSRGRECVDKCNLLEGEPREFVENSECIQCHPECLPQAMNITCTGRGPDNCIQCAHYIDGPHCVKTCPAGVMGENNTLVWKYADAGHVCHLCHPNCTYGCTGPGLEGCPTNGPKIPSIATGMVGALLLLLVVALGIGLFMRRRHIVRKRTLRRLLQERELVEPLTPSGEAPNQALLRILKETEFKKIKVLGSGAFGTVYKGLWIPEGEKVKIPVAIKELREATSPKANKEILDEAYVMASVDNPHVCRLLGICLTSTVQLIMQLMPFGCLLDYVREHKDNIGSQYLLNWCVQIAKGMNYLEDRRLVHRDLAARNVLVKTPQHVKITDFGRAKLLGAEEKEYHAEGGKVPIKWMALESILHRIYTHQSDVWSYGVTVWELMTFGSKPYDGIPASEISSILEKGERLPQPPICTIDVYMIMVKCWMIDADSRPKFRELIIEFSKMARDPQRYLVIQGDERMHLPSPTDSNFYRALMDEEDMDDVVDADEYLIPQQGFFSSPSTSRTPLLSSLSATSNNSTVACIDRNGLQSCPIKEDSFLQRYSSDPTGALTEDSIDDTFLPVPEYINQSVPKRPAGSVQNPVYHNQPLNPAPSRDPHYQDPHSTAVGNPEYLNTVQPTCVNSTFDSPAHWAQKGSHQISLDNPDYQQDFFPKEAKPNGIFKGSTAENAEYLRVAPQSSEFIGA
T4 sequence (P00533 25-1210 L858R): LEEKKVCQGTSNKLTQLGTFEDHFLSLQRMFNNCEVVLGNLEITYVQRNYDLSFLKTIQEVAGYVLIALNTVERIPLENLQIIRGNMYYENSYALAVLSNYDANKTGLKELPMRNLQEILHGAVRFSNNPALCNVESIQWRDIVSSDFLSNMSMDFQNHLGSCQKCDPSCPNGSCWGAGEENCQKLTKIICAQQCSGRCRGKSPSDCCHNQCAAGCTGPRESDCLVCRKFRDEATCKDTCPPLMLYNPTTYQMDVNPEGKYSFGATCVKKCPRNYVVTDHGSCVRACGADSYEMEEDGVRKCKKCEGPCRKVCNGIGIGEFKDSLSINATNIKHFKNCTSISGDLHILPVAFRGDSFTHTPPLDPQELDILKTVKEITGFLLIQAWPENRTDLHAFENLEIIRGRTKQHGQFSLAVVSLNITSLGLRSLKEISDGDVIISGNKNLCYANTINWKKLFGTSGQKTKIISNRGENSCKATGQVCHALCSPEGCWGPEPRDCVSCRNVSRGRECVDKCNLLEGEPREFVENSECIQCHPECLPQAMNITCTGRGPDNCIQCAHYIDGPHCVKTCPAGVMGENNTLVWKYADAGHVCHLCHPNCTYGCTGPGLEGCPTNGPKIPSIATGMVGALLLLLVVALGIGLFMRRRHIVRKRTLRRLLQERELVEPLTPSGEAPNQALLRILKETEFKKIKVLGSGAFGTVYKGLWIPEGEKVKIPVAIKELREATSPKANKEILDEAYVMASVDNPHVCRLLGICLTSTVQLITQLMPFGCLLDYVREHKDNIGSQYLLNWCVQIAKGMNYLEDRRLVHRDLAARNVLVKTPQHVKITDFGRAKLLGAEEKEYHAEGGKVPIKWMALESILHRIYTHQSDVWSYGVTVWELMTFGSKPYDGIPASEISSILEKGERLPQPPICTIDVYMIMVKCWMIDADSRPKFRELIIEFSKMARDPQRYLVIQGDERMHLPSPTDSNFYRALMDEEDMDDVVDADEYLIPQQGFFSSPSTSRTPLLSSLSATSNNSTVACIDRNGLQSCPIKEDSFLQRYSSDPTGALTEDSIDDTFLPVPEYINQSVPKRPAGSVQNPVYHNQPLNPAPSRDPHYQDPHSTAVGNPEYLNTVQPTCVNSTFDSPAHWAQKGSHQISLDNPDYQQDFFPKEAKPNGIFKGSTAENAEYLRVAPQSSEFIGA

As to `C=CC(=O)N[C@@H]1CN(c2nc(Nc3cn(C4CCN(C)C4)nc3C)c3ncn(C)c3n2)C[C@H]1F` (stereo partly drawn) [Example 81, N-((3R,4R)-4-fluoro-1-(9-methyl-6-((3-methyl-1-(1-methylpyrrolidin-3-yl)-1H -pyrazol-4-yl)amino)-9H-purin-2-yl)pyrrolidin-3-yl)acrylamide], the IC50 – broadly, the point on the concentration scale where inhibition reaches its midpoint – in assay [1] was determined as 21 nM; in assay [2], 19 nM; in assay [3] it was 8 nM; in assay [4] it was 15 nM; in assay [5] it was 575 nM.

For the compound `C=CC(=O)N[C@@H]1CN(c2nc(Nc3cn(CC(C)O)nc3OC)c3ncn(C(C)C)c3n2)C[C@H]1F` (stereo partly drawn) [Example 84, N-((3R,4R)-4-fluoro-1-(6-((1-(2-hydroxypropyl)-3-methoxy-1H-pyrazol-4-yl)amino)-9-isopropyl-9H-purin-2-yl)pyrrolidin-3-yl)acrylamide], the IC50 in assay [1] amounted to 45 nM; in assay [2] it was 15 nM; in assay [3], 3 nM; in assay [4], 9 nM; in assay [5], 1200 nM.

Turning to `C=CC(=O)N[C@@H]1CN(c2nc(Nc3cnn([C@@H]4CCN(C)C4)c3C)c3ncn(C(C)C)c3n2)C[C@H]1F` [Example 85, N-((3R,4R)-4-fluoro-1-(9-isopropyl-6-((5-methyl-1-((R)-1-methylpyrrolidin-3-yl) -1H-pyrazol-4-yl)amino)-9H-purin-2-yl)pyrrolidin-3-yl)acrylamide], the IC50 in assay [1] amounted to 104 nM; in assay [2] it was 17 nM; in assay [3], 15 nM; in assay [4] it was 34 nM; in assay [5], 647 nM.

Consider `C=CC(=O)N[C@@H]1CN(c2nc(Nc3cn(CC)nc3OC)c3ncn(C)c3n2)C[C@H]1F` [Example 88, N-((3R,4R)-1-(6-((1-ethyl-3-methoxy-1H-pyrazol-4-yl)amino)-9-methyl-9H-purin-2-yl)-4-fluoropyrrolidin-3-yl)acrylamide], for which the IC50 in assay [1] was found to be 6 nM; in assay [2] it was 6 nM; in assay [3], 1 nM; in assay [4] (inhibition of phosphorylation of EGFR at Tyr1068, NCI-H3255 NSCLC cells, 2 hr compound incubation), 2 nM; in assay [5] it was 194 nM.
